Test system: Mitochondria-located protein genes
Assay: DNA chip mRNA expression in yeast, mitochondria-located protein genes (Table 2)
Assay type: cell-based, Saccharomyces cerevisiae S288C
Settings: cells incubated two hours with the chemical substance
How it was run: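 Value is the scanned fluorescence intensity ratio of exposed versus chemical-free cells. Log-phase S288C yeast in YPD at 25° C. received one toxic substance for two hours, dosed to slow growth without killing; Cy3/Cy5-labeled cDNA from oligo-dT-purified mRNA was hybridized to a whole-genome chip at 65° C.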

[Cl][Cd][Cl] [(2), CdCl2]
The level of expressed mRNA in the presence of chemical substance/The level of expressed mRNA in the absence of chemical substance (yeast gene YJR121W): 1.1 | The level of expressed mRNA in the presence of chemical substance/The level of expressed mRNA in the absence of chemical substance (yeast gene YKL003C): 0.7 | The level of expressed mRNA in the presence of chemical substance/The level of expressed mRNA in the absence of chemical substance (yeast gene YKL016C): 1.3 | The level of expressed mRNA in the presence of chemical substance/The level of expressed mRNA in the absence of chemical substance (yeast gene YKL141W): 1.1 | The level of expressed mRNA in the presence of chemical substance/The level of expressed mRNA in the absence of chemical substance (yeast gene YKL142W): 2.7 | The level of expressed mRNA in the presence of chemical substance/The level of expressed mRNA in the absence of chemical substance (yeast gene YKL148C): 0.8 | The level of expressed mRNA in the presence of chemical substance/The level of expressed mRNA in the absence of chemical substance (yeast gene YKL170W): 0.8 | The level of expressed mRNA in the presence of chemical substance/The level of expressed mRNA in the absence of chemical substance (yeast gene YKL194C): 0.7 | The level of expressed mRNA in the presence of chemical substance/The level of expressed mRNA in the absence of chemical substance (yeast gene YKR066C): 1.4 | The level of expressed mRNA in the presence of chemical substance/The level of expressed mRNA in the absence of chemical substance (yeast gene YLL041C): 0.5 | The level of expressed mRNA in the presence of chemical substance/The level of expressed mRNA in the absence of chemical substance (yeast gene YLR038C): 1.1 | The level of expressed mRNA in the presence of chemical substance/The level of expressed mRNA in the absence of chemical substance (yeast gene YLR259C): 1.0 | The level of expressed mRNA in the presence of chemical substance/The level of expressed mRNA in the absence of chemical substance (yeast gene YLR295C): 1.1 | The level of expressed mRNA in the presence of chemical substance/The level of expressed mRNA in the absence of chemical substance (yeast gene YLR304C): 0.6 | The level of expressed mRNA in the presence of chemical substance/The level of expressed mRNA in the absence of chemical substance (yeast gene YLR348C): 4.5 | The level of expressed mRNA in the presence of chemical substance/The level of expressed mRNA in the absence of chemical substance (yeast gene YLR395C): 1.3 | The level of expressed mRNA in the presence of chemical substance/The level of expressed mRNA in the absence of chemical substance (yeast gene YML054C): 1.8 | The level of expressed mRNA in the presence of chemical substance/The level of expressed mRNA in the absence of chemical substance (yeast gene YML120C): 1.2 | The level of expressed mRNA in the presence of chemical substance/The level of expressed mRNA in the absence of chemical substance (yeast gene YML129C): 0.9 | The level of expressed mRNA in the presence of chemical substance/The level of expressed mRNA in the absence of chemical substance (yeast gene YMR023C): 1.3 | The level of expressed mRNA in the presence of chemical substance/The level of expressed mRNA in the absence of chemical substance (yeast gene YMR035W): 1.7 | The level of expressed mRNA in the presence of chemical substance/The level of expressed mRNA in the absence of chemical substance (yeast gene YMR083W): 1.7 | The level of expressed mRNA in the presence of chemical substance/The level of expressed mRNA in the absence of chemical substance (yeast gene YMR089C): 1.1 | The level of expressed mRNA in the presence of chemical substance/The level of expressed mRNA in the absence of chemical substance (yeast gene YMR152W): 1.1 | The level of expressed mRNA in the presence of chemical substance/The level of expressed mRNA in the absence of chemical substance (yeast gene YMR203W): 0.7 | The level of expressed mRNA in the presence of chemical substance/The level of expressed mRNA in the absence of chemical substance (yeast gene YMR267W): 1.8 | The level of expressed mRNA in the presence of chemical substance/The level of expressed mRNA in the absence of chemical substance (yeast gene YNL055C): 1.8 | The level of expressed mRNA in the presence of chemical substance/The level of expressed mRNA in the absence of chemical substance (yeast gene YNL071W): 0.9 | The level of expressed mRNA in the presence of chemical substance/The level of expressed mRNA in the absence of chemical substance (yeast gene YNL073W): 1.4 | The level of expressed mRNA in the presence of chemical substance/The level of expressed mRNA in the absence of chemical substance (yeast gene YNL104C): 1.3 | The level of expressed mRNA in the presence of chemical substance/The level of expressed mRNA in the absence of chemical substance (yeast gene YNL256W): 1.6 | The level of expressed mRNA in the presence of chemical substance/The level of expressed mRNA in the absence of chemical substance (yeast gene YOL096C): 1.0 | The level of expressed mRNA in the presence of chemical substance/The level of expressed mRNA in the absence of chemical substance (yeast gene YOR020C): 2.1 | The level of expressed mRNA in the presence of chemical substance/The level of expressed mRNA in the absence of chemical substance (yeast gene YOR037W): 1.5 | The level of expressed mRNA in the presence of chemical substance/The level of expressed mRNA in the absence of chemical substance (yeast gene YOR100C): 1.4 | The level of expressed mRNA in the presence of chemical substance/The level of expressed mRNA in the absence of chemical substance (yeast gene YOR130C): 1.7 | The level of expressed mRNA in the presence of chemical substance/The level of expressed mRNA in the absence of chemical substance (yeast gene YOR142W): 1.2 | The level of expressed mRNA in the presence of chemical substance/The level of expressed mRNA in the absence of chemical substance (yeast gene YOR150W): 1.2 | The level of expressed mRNA in the presence of chemical substance/The level of expressed mRNA in the absence of chemical substance (yeast gene YOR176W): 2.6 | The level of expressed mRNA in the presence of chemical substance/The level of expressed mRNA in the absence of chemical substance (yeast gene YOR187W): 0.5 | The level of expressed mRNA in the presence of chemical substance/The level of expressed mRNA in the absence of chemical substance (yeast gene YOR316C): 2.5 | The level of expressed mRNA in the presence of chemical substance/The level of expressed mRNA in the absence of chemical substance (yeast gene YPL040C): 1.0 | The level of expressed mRNA in the presence of chemical substance/The level of expressed mRNA in the absence of chemical substance (yeast gene YPL134C): 1.0 | The level of expressed mRNA in the presence of chemical substance/The level of expressed mRNA in the absence of chemical substance (yeast gene YPL135W): 1.2 | The level of expressed mRNA in the presence of chemical substance/The level of expressed mRNA in the absence of chemical substance (yeast gene YPL215W): 1.9 | The level of expressed mRNA in the presence of chemical substance/The level of expressed mRNA in the absence of chemical substance (yeast gene YPL262W): 1.7 | The level of expressed mRNA in the presence of chemical substance/The level of expressed mRNA in the absence of chemical substance (yeast gene YPR024W): 1.0 | The level of expressed mRNA in the presence of chemical substance/The level of expressed mRNA in the absence of chemical substance (yeast gene YPR037C): 2.3 | The level of expressed mRNA in the presence of chemical substance/The level of expressed mRNA in the absence of chemical substance (yeast gene YPR047W): 1.0 | The level of expressed mRNA in the presence of chemical substance/The level of expressed mRNA in the absence of chemical substance (yeast gene YPR134W): 1.1

Reference: patent publication US8192962B2, “Processes for detecting toxic substances” (Daikin Industries, Ltd., priority 2001, dated 2012)
